Source: patent US8716303B2, “N-(hetero)aryl-pyrrolidine derivatives of pyrazol-4-yl-pyrrolo[2,3-d]pyrimidines and pyrrol-3-yl-pyrrolo[2,3-d]pyrimidines as janus kinase inhibitors” (Incyte Corporation, priority 2009, dated 2014)
Structures can show the parent of a compound that is named as a salt.

Tests used:
[1] = molecular target: T1, Jak2 (a.a. 828-1132) (Homo sapiens, UniProt O60674); assay: In vitro JAK kinase assay (HTRF, phosphorylation of a biotinylated peptide), JAK2, reported as JAK2/JAK1 ratio; format: biochemical
T1 construct: Jak2 (a.a. 828-1132); His tag (N); made in house; host or cells: insect cells (baculovirus)
Procedure: (§1) Compounds herein were tested for inhibitory activity of JAK targets according to the following in vitro assay described in Park et al., Analytical Biochemistry 1999, 269, 94-104. The catalytic domains of human JAK1 (a.a. 837-1142), Jak2 (a.a. 828-1132) and Jak3 (a.a. 781-1124) with an N-terminal His tag were expressed using baculovirus in insect cells and purified. The catalytic activity of JAK1, JAK2 or JAK3 was assayed by measuring the phosphorylation of a biotinylated peptide. The phosphorylated peptide was detected by homogenous time resolved fluorescence (HTRF). IC50s of compounds were measured for each kinase in the 40 microL reactions that contain the enzyme, ATP and 500 nM peptide in 50 mM Tris (pH 7.8) buffer with 100 mM NaCl, 5 mM DTT, and 0.1 mg/mL (0.01%) BSA. The ATP concentration in the reactions was 90 μM for Jak1, 30 μM for Jak2 and 3 μM for Jak3 for Km conditions. For the 1 mM IC50 measurements, ATP concentration in the reactions was 1 mM. Reactions were carried out at RT for 1 h and then stopped with 20 μL 45 mM EDTA, 300 nM SA-APC, 6 nM Eu-Py20 in assay buffer (Perkin Elmer, Boston, Mass.). Binding to the Europium labeled antibody took place for 40 min and HTRF signal was measured on a Fusion plate reader (Perkin Elmer, Boston, Mass.).
(§2) Compounds herein were tested for inhibitory activity of JAK1 and JAK2 targets according to the assay of Example A (experiments run at Km or 1 mM as indicated). The symbol “+” indicates an IC50<50 nM; the symbol “++” indicates an IC50≧50 and ≦100 nM; and the symbol “+++” indicates an IC50>100 and ≦500 nM.

[2] = molecular target: T2, human JAK1 (a.a. 837-1142) (Homo sapiens, UniProt P23458); assay: In vitro JAK kinase assay (HTRF, phosphorylation of a biotinylated peptide), JAK1; format: biochemical
T2 construct: human JAK1 (a.a. 837-1142); His tag (N); made in house; host or cells: insect cells (baculovirus)
Procedure: as §1, §2

T2 sequence (P23458 849-1154): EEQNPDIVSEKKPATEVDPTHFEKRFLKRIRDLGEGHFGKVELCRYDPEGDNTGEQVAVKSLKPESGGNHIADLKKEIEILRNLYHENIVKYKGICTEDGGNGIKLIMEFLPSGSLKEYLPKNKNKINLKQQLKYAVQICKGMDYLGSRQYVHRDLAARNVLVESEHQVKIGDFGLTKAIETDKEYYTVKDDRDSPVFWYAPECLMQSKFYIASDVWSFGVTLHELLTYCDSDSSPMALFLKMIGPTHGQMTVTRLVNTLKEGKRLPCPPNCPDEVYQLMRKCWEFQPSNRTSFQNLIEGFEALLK
T1 sequence (O60674 828-1132): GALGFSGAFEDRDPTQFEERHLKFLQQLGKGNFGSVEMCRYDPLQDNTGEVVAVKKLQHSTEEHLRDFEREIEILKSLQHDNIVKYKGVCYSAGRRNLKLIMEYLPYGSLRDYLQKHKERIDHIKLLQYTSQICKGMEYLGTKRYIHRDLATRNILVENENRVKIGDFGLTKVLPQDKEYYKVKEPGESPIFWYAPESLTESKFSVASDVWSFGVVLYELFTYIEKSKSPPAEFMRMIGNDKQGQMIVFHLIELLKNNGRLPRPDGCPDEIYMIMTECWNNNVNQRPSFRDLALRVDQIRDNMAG

Compound	JAK2/JAK1 IC50 ratio ([1]; Assay Conditions 1 mM ATP)	IC50 ([2]; Assay Conditions 1 mM ATP)	JAK2/JAK1 IC50 ratio ([1]; Assay Conditions Km (ATP 90 μM for Jak1, 30 μM for Jak2))	IC50 ([2]; Assay Conditions Km (ATP 90 μM for Jak1))
N#Cc1cccnc1N1CC[C@H](C(CF)n2cc(-c3ncnc4[nH]ccc34)cn2)C1 (stereo partly drawn) [Example 118, 2-((3S)-3-{2-fluoro-1-[4-(7H-pyrrolo[2,3-d]pyrimidin-4-yl)-1H-pyrazol-1-yl]ethyl}pyrrolidin-1-yl)nicotinonitrile trifluoroacetate]	2.8	< 50 nM	–	–
N#CCC(C1CCN(c2nc3cccc(O)c3o2)C1)n1cc(-c2ncnc3[nH]ccc23)cn1 (single isomer, unassigned) [Example 161, 3-[1-(7-hydroxy-1,3-benzoxazol-2-yl)pyrrolidin-3-yl]-3-[4-(7H-pyrrolo[2,3-d]pyrimidin-4-yl)-1H-pyrazol-1-yl]propanenitrile]	24.7	< 50 nM	–	–
N#CCC(C1CCN(c2ccc3c(n2)[S+]([O-])CC3)C1)n1ccc(-c2ncnc3[nH]ccc23)c1 (centres unmarked) [Example 35, 3-[1-(1-oxido-2,3-dihydrothieno[2,3-b]pyridin-6-yl)pyrrolidin-3-yl]-3-[3-(7H-pyrrolo[2,3-d]pyrimidin-4-yl)-1H-pyrrol-1-yl]propanenitrile]	4.2	< 50 nM	–	–
N#CCC(C1CCN(c2scnc2C#N)C1)n1ccc(-c2ncnc3[nH]ccc23)c1 (racemic) [Example 149-rac, 5-(3-{2-cyano-1-[3-(7H-pyrrolo[2,3-d]pyrimidin-4-yl)-1H-pyrrol-1-yl]ethyl}pyrrolidin-1-yl)-1,3-thiazole-4-carbonitrile]	14.5	< 50 nM	–	–
N#CC[C@@H]([C@H]1CCN(c2c(F)cccc2C#N)C1)n1cc(-c2ncnc3[nH]ccc23)cn1 [Example 58, 2-((3S)-3-{(1S)-2-cyano-1-[4-(7H-pyrrolo[2,3-d]pyrimidin-4-yl)-1H-pyrazol-1-yl]ethyl}pyrrolidin-l-yl)-3-fluorobenzonitrile trifluoroacetate salt]	8	< 50 nM	–	–
N#CCC(C1CCN(c2nc3c(F)cccc3o2)C1)n1cc(-c2ncnc3[nH]ccc23)cn1 (single isomer, unassigned) [Example 20, 3-[1-(4-fluoro-1,3-benzoxazol-2-yl)pyrrolidin-3-yl]-3-[4-(7H-pyrrolo[2,3-d]pyrimidin-4-yl)-1H-pyrazol-1-yl]propanenitrile]	10.4	< 50 nM	–	–
N#CC[C@@H]([C@H]1CCN(c2scc(C#N)c2C#N)C1)n1cc(-c2ncnc3[nH]ccc23)cn1 [Example 79, 2-((3S)-3-{(1S)-2-cyano-1-[4-(7H-pyrrolo[2,3-d]pyrimidin-4-yl)-1H-pyrazol-1-yl]ethyl}pyrrolidin-1-yl)thiophene-3,4-dicarbonitrile]	20.0	< 50 nM	–	–
FCC([C@H]1CCN(c2nc3c(cc2F)CCS3)C1)n1cc(-c2ncnc3[nH]ccc23)cn1 (stereo partly drawn) [Example 85, 4-(1-{2-fluoro-1-[(3S)-1-(5-fluoro-2,3-dihydrothieno[2,3-b]pyridin-6-yl)pyrrolidin-3-yl]ethyl}-1H-pyrazol-4-yl)-7H-pyrrolo[2,3-d]pyrimidine bis(trifluoroacetate)]	5.3	< 50 nM	–	–
N#CCC(C1CCN(c2ncc3cc[nH]c3c2C#N)C1)n1cc(-c2ncnc3[nH]ccc23)cn1 (single isomer, unassigned) [Example 177, 6-(3-{2-cyano-1-[4-(7H-pyrrolo[2,3-d]pyrimidin-4-yl)-1H-pyrazol-1-yl]ethyl}pyrrolidin-1-yl)-1H-pyrrolo[3,2-c]pyridine-7-carbonitrile]	>5.4	< 50 nM	–	–
N#CCC(C1CCN(c2scc(C#N)c2C#N)C1)n1ccc(-c2ncnc3[nH]ccc23)c1 (single isomer, unassigned) [81 enantiomer 2]	8.1	< 50 nM	–	–
CS(=O)(=O)c1ccc(F)c(N2CC[C@H]([C@H](CC#N)n3cc(-c4ncnc5[nH]ccc45)cn3)C2)n1 [Example 133, (3S)-3-{(3S)-1-[3-fluoro-6-(methylsulfonyl)pyridin-2-yl]pyrrolidin-3-yl}-3-[4-(7H-pyrrolo [2,3-d]pyrimidin-4-yl)-1H-pyrazol-1-yl] propanenitrile trifluoroacetate]	3	50 to 100 nM	–	–
N#CCC(n1cc(-c2ncnc3[nH]ccc23)cn1)C1(F)CCN(c2nc3cccnc3o2)C1 (single isomer, unassigned) [31, Step 4a, enantiomer 2]	5.1	50 to 100 nM	–	–
N#CCC(C1CCN(c2ncc3c(c2C#N)SCC3)C1)n1ccc(-c2ncnc3[nH]ccc23)c1 (single isomer, unassigned) [Example 174-2, 6-(3-{2-cyano-1-[3-(7H-pyrrolo[2,3-d]pyrimidin-4-yl)-1H-pyrrol-1-yl]ethyl}pyrrolidin-1-yl)-2,3-dihydrothieno[3,2-c]pyridine-7-carbonitrile]	11.1	< 50 nM	–	–
Cc1ccnc(N2CC[C@H]([C@H](CC#N)n3cc(-c4ncnc5[nH]ccc45)cn3)C2)c1C#N [Example 100, 2-((S)-3-((S)-1-(4-(7H-pyrrolo[2,3-d]pyrimidin-4-yl)-1H-pyrazol-1-yl)-2-cyanoethyl)pyrrolidin-1-yl)-4-methylnicotinonitrile trifluoroacetate]	>7.4	< 50 nM	–	–
N#CCC(C1CCN(c2cccc(Cl)n2)C1)n1cc(-c2ncnc3[nH]ccc23)cn1 (single isomer, unassigned) [2, Step 2a]	–	–	7.3	< 50 nM
CCS(=O)(=O)c1cc(N2CCC(C(CC#N)n3ccc(-c4ncnc5[nH]ccc45)c3)C2)ccn1 (racemic) [Example 148-rac, 3-{1-[2-(ethylsulfonyl)pyridin-4-yl]pyrrolidin-3-yl}-3-[3-(7H-pyrrolo[2,3-d]pyrimidin-4-yl)-1H-pyrrol-1-yl]propanenitrile]	4.0	< 50 nM	–	–
CCOc1cccc2nc(N3CCC(C(CC#N)n4cc(-c5ncnc6[nH]ccc56)cn4)C3)oc12 (single isomer, unassigned) [Example 163, 3-(4-(7H-pyrrolo[2,3-d]pyrimidin-4-yl)-1H-pyrazol-1-yl)-3-(1-(7-ethoxybenzo[d]oxazol-2-yl)pyrrolidin-3-yl)propanenitrile]	3.3	< 50 nM	–	–
N#CC[C@@H]([C@H]1CCN(c2c(F)nc(F)c(F)c2C#N)C1)n1cc(-c2ncnc3[nH]ccc23)cn1 [Example 65, 3-((3S)-3-{(1S)-2-cyano-1-[4-(7H-pyrrolo[2,3-d]pyrimidin-4-yl)-1H-pyrazol-1-yl]ethyl}pyrrolidin-1-yl)-2,5,6-trifluoroisonicotinonitrile trifluoroacetate salt]	9.4	< 50 nM	–	–
CCS(=O)(=O)c1ccc(F)c(N2CC[C@H]([C@H](CC#N)n3cc(-c4ncnc5[nH]ccc45)cn3)C2)n1 [Example 93, (3S)-3-{(3S)-1-[6-(ethylsulfonyl)-3-fluoropyridin-2-yl]pyrrolidin-3-yl}-3-[4-(7H-pyrrolo[2,3-d]pyrimidin-4-yl)-1H-pyrazol-1-yl]propanenitrile trifluoroacetate]	5.3	< 50 nM	–	–
N#CC[C@@H]([C@H]1CCN(c2ccc(F)c(F)n2)C1)n1cc(-c2ncnc3[nH]ccc23)cn1.O=C(O)C(F)(F)F [Example 89, (3S)-3-[(3S)-1-(5,6-difluoropyridin-2-yl)pyrrolidin-3-yl]-3-[4-(7H-pyrrolo[2,3-d]pyrimidin-4-yl)-1H-pyrazol-1-yl]propanenitrile trifluoroacetate]	3.1	< 50 nM	–	–
Cc1cnc(N2CC[C@H]([C@H](CC#N)n3cc(-c4ncnc5[nH]ccc45)cn3)C2)c(C#N)c1 [Example 109, 2-((S)-3-((S)-1-(4-(7H-pyrrolo[2,3-d]pyrimidin-4-yl)-1H-pyrazol-1-yl)-2-cyanoethyl)pyrrolidin-1-yl)-5-methylnicotinonitrile trifluoroacetate salt]	5.0	< 50 nM	–	–
N#CC[C@@H]([C@H]1CCN(c2ncc(CC(F)F)nc2C#N)C1)n1cc(-c2ncnc3[nH]ccc23)cn1 [Example 139, 3-((3S)-3-{(1S)-2-cyano-1-[4-(7H-pyrrolo[2,3-d]pyrimidin-4-yl)-1H-pyrazol-1-yl]ethyl}pyrrolidin-1-yl)-6-(2,2-difluoroethyl)pyrazine-2-carbonitrile trifluoroacetate]	–	< 50 nM	–	–
N#CC[C@@H]([C@H]1CCN(c2nc(Cl)c(F)cc2NC=O)C1)n1cc(-c2ncnc3[nH]ccc23)cn1 [Example 92, N-(2-((S)-3-((S)-1-(4-(7H-pyrrolo[2,3-d]pyrimidin-4-yl)-1H-pyrazol-1-yl)-2-cyanoethyl)pyrrolidin-1-yl)-6-chloro-5-fluoropyridin-3-yl)formamide trifluoroacetate]	–	< 50 nM	–	–
